# In patent US9301923B2, “Lipids, lipid compositions, and methods of using them” (NOVARTIS AG, priority 2009, dated 2016):
# Several values for one entry are separate records, joined by “and”; a condition that tells them apart may be missing. Equal values may be shown once. Read-outs that look alike come from different tables or passages of the source.
# Legend:
# [1] = pKa of the lipid by TNS fluorescence; format: physicochemical
# Description: Unless explicitly indicated otherwise, all pKas referred to herein are measured in water at standard temperature and pressure. Also, unless otherwise indicated, all references to pKa are references to pKa measured using the following technique.
# 2 mM solution of lipid in ethanol are prepared by weighing the lipid and then dissolving in ethanol.
# This is done with all eight buffers.
# Priority: Column priority • Carriage Speed: Normal • Auto read: Off
# The normalized fluorescence intensity vs. pH chart is then plotted in the Microsoft Excel software. The eight points are connected with a smooth line.
# The pKa determined using this method is precise to about 0.2 pKa units.
# Factor VII = Factor VII activity assay, in vivo liver delivery of FVII siRNA LNP; set-up: species or system mouse; conditions: for FVII inhib %: ~48 h
# Description: Female CD-1 mice are received from Charles River Labs and maintained on standard lab chow and water ad libitum. The animals weigh approximately 25 grams at time of dosing. Formulated siRNA is administered as a single dose at various dose levels intravenously via the lateral tail vein calculated on a (mg siRNAs/kg) basis according to individual animal weights (10 ml/kg injection volume).
# Formulated siRNAs are made up of double stranded siRNA sequences specific to a target mRNA sequence, and are in the form of lipid nucleotid particles (LNPs) containing cationic lipids, stealth lipids and neutral lipids, as provided in the Examples below. The siRNA construct for use in targeting the liver is specific to Factor VII. […] FVII siRNA duplex sequence
# Formulated Factor VII siRNA is administered as a single dose at various dose levels intravenously via the lateral tail vein calculated on a mg siRNAs/kg basis according to individual animal weights (10 ml/kg injection volume). Approximately 48 h after injection, the mice are euthanized by CO2 inhalation followed by exsanguinations through the vena cava. […] In some cases, small pieces (˜50 mg) of liver are collected and snap frozen in liquid nitrogen for follow up mRNA quantitation.
# An assay standard curve is prepared using pooled plasma aliquots from the vehicle control animals.
# [2] = Particle size and PDI by dynamic light scattering (Malvern Zetasizer); format: physicochemical
# Description: Unless indicated otherwise, all sizes referred to herein are the average sizes (diameters) of the fully formed nanoparticle, as measured by dynamic light scattering on a Malvern Zetasizer. The nanoparticle sample is diluted in phosphate buffered saline (PBS) so that the count rate is approximately 200-400 kcts. The data is presented as a weighted average of the intensity measure.
# The acronym PDI stands for polydispersity index. Unless indicated otherwise, all PDIs referred to herein are the PDI of the fully formed nanoparticle, as measured by dynamic light scattering on a Malvern Zetasizer. The nanoparticle sample is diluted in phosphate buffered saline (PBS) so that the count rate is approximately 200-400 kcts.
# [3] = dose 3 mg/kg siRNA i.v., lipid/DSPC/CHOL/AVANTI 880150P 50/28/18/4, N/P 3.43
# [4] = dose 3 mg/kg siRNA i.v., lipid/no neutral lipid/CHOL/AVANTI 880150P 50/0/46/4, N/P 3.43
# [5] = lipid/DSPC/CHOL/AVANTI 880150P 50/28/18/4, N/P 3.43
# [6] = lipid/no neutral lipid/CHOL/AVANTI 880150P 50/0/46/4, N/P 3.43
# [7] = dose 1 mg/kg siRNA i.v., lipid/no neutral lipid/CHOL/GM-020 NOF 60/0/36/4, N/P 3
# [8] = lipid/no neutral lipid/CHOL/GM-020 NOF 60/0/36/4, N/P 3
smiles,measurement,setting,value
CCCCC/C=C\C/C=C\CCCCCCCCOCC(CN1CCCC1)OCCOCCO[C@H]1CC[C@@]2(C)C(=CC[C@H]3[C@@H]4CC[C@H]([C@H](C)CCCC(C)C)[C@@]4(C)CC[C@@H]32)C1 (stereo partly drawn) [E0015],pKa,[1]; pKa,7.39
same,FVII inhib %,Factor VII; [3],30.7%
same,FVII inhib %,Factor VII; [4],77.1%
same,Final size (nm),[2]; [5],164 nm
same,PDI,[2]; [5],0.06
same,Final size (nm),[2]; [6],130 nm
same,PDI,[2]; [6],0.05
CCCCCCCC/C=C\CCCCCCCCOCC(CN1CCCC1C)OCCCOCCCO[C@H]1CC[C@@]2(C)C(=CC[C@H]3[C@@H]4CC[C@H]([C@H](C)CCCC(C)C)[C@@]4(C)CC[C@@H]32)C1 (stereo partly drawn) [E0094],pKa,[1]; pKa,5.91
same,FVII inhib %,Factor VII; [7],36.3%
same,Final size (nm),[2]; [8],115.5 nm
same,PDI,[2]; [8],0.076
CCCCC/C=C\C/C=C\CCCCCCCCOCC(CN1CCC(OC)C1)OCCCCO[C@H]1CC[C@@]2(C)C(=CCC3C2CC[C@@]2(C)C3CC[C@@H]2[C@H](C)CCCC(C)C)C1 (stereo partly drawn) [E0035],pKa,[1]; pKa,5.93
same,FVII inhib %,Factor VII; [3],22%
same,FVII inhib %,Factor VII; [4],66.8%
same,Final size (nm),[2]; [5],103 nm
same,PDI,[2]; [5],0.2
same,Final size (nm),[2]; [6],79 nm
same,PDI,[2]; [6],0.21
CCCCC/C=C\C/C=C\CCCCCCCCOCC(CN1CCCC(C)C1)OCCOCCO[C@H]1CC[C@@]2(C)C(=CCC3C2CC[C@@]2(C)C3CC[C@@H]2[C@H](C)CCCC(C)C)C1 (stereo partly drawn) [E0023],pKa,[1]; pKa,5.85
same,FVII inhib %,Factor VII; [3],59.1%
same,FVII inhib %,Factor VII; [4],68%
same,Final size (nm),[2]; [5],95 nm
same,PDI,[2]; [5],0.221
same,Final size (nm),[2]; [6],99 nm
same,PDI,[2]; [6],0.122
"CCCCC/C=C\C/C=C\CCCCCCCCOCC(CN(C)C)OCCOCCO[C@H]1CC[C@@]2(C)C(=CC[C@H]3[C@@H]4CC[C@H]([C@H](C)CCCC(C)C)[C@@]4(C)CC[C@@H]32)C1 (stereo partly drawn) [E0172, reference compound]",pKa,[1],8.5
same,pKa,[1]; pKa,6.7
same,FVII inhib %,Factor VII; [3],21%
same,FVII inhib %,Factor VII; [4],40.8%
same,Final size (nm),[2]; [5],170 nm
same,PDI,[2]; [5],0.181
same,Final size (nm),[2]; [6],129 nm
same,PDI,[2]; [6],0.184
CCCCC/C=C\C/C=C\CCCCCCCCOCC(CN1CCC(C)(C)CC1)OCCOCCO[C@H]1CC[C@@]2(C)C(=CCC3C2CC[C@@]2(C)C3CC[C@@H]2[C@H](C)CCCC(C)C)C1 (stereo partly drawn) [E0171],pKa,[1]; pKa,8.5
same,FVII inhib %,Factor VII; [4],54.1%
same,in vivo Factor VII inhibition,"Factor VII; formulation containing the cationic lipid, RNAi construct specific to Factor VII, liver",40.8%
same,Final size (nm),[2]; [6],90 nm
same,PDI,[2]; [6],0.18
CCCCC/C=C\C/C=C\CCCCCCCCOCC(CN1CCOCC1)OCCCCO[C@H]1CC[C@@]2(C)C(=CCC3C2CC[C@@]2(C)C3CC[C@@H]2[C@H](C)CCCC(C)C)C1 (stereo partly drawn) [E0028],pKa,[1]; pKa,4.8
same,FVII inhib %,Factor VII; [3],12.5%
same,FVII inhib %,Factor VII; [4],38.7%
same,Final size (nm),[2]; [5],129 nm
same,PDI,[2]; [5],0.216
same,Final size (nm),[2]; [6],68 nm
same,PDI,[2]; [6],0.125
CCCCC/C=C\C/C=C\CCCCCCCCOCC(CN1CCCC[C@@H]1C)OCCOCCO[C@H]1CC[C@@]2(C)C(=CCC3C2CC[C@@]2(C)C3CC[C@@H]2[C@H](C)CCCC(C)C)C1 (stereo partly drawn) [E0019],pKa,[1]; pKa,6.75
same,FVII inhib %,"Factor VII; dose 1 mg/kg siRNA i.v., lipid/no neutral lipid/CHOL/AVANTI 880150P 50/0/46/4, N/P 3.43",33.7%
same,FVII inhib %,Factor VII; [3],76.7%
same,FVII inhib %,Factor VII; [4],85.2%
same,Final size (nm),[2]; [5],143 nm
same,PDI,[2]; [5],0.065
same,Final size (nm),[2]; [6],90.5 nm and 180 nm
same,PDI,[2]; [6],0.164 and 0.19
CCCCC/C=C\C/C=C\CCCCCCCCOCC(CN1CCC(OC)C1)OCCO[C@H]1CC[C@@]2(C)C(=CC[C@H]3[C@@H]4CC[C@H]([C@H](C)CCCC(C)C)[C@@]4(C)CC[C@@H]32)C1 (stereo partly drawn) [E0087],pKa,[1]; pKa,6.38
same,FVII inhib %,Factor VII; [7],69%
same,Final size (nm),[2]; [8],119.2 nm
same,PDI,[2]; [8],0.148
CCCCC/C=C\C/C=C\CCCCCCCCOCC(CN1CCCC1C)OCCOCCO[C@H]1CC[C@@]2(C)C(=CC[C@H]3[C@@H]4CC[C@H]([C@H](C)CCCC(C)C)[C@@]4(C)CC[C@@H]32)C1 (stereo partly drawn) [E0083],pKa,[1]; pKa,6.79
same,FVII inhib %,Factor VII; [7],55.6%
same,Final size (nm),[2]; [8],113.4 nm
same,PDI,[2]; [8],0.199
CCCCCCCC/C=C\CCCCCCCCOCC(CN1CCCC1C)OCCO[C@H]1CC[C@@]2(C)C(=CC[C@H]3[C@@H]4CC[C@H]([C@H](C)CCCC(C)C)[C@@]4(C)CC[C@@H]32)C1 (stereo partly drawn) [E0066],pKa,[1]; pKa,6.5
same,FVII inhib %,Factor VII; [7],44.2%
same,Final size (nm),[2]; [8],140.7 nm
same,PDI,[2]; [8],0.071
CCCCC/C=C\C/C=C\CCCCCCCCOCC(CN1CCCCC1)OC(=O)COCC(=O)O[C@H]1CC[C@@]2(C)C(=CCC3C2CC[C@@]2(C)C3CC[C@@H]2[C@H](C)CCCC(C)C)C1 (stereo partly drawn) [E0047],pKa,[1]; pKa,5.55
same,FVII inhib %,Factor VII; [4],−3.4%
same,Final size (nm),[2]; [6],112 nm
same,PDI,[2]; [6],0.061
CCCCCCCC/C=C\CCCCCCCCOCC(CN1CCC(OC)C1)OCCOCCO[C@H]1CC[C@@]2(C)C(=CC[C@H]3[C@@H]4CC[C@H]([C@H](C)CCCC(C)C)[C@@]4(C)CC[C@@H]32)C1 (stereo partly drawn) [E0064],pKa,[1]; pKa,6.83
same,FVII inhib %,Factor VII; [7],37.2%
same,Final size (nm),[2]; [8],169.2 nm
same,PDI,[2]; [8],0.144
CCCCC/C=C\C/C=C\CCCCCCCCOC[C@H](CN1CCCCC1)OCCOCCO[C@H]1CC[C@@]2(C)C(=CCC3C2CC[C@@]2(C)C3CC[C@@H]2[C@H](C)CCCC(C)C)C1 (stereo partly drawn) [E0043],pKa,[1]; pKa,6.33
same,FVII inhib %,Factor VII; [3],95.7%
same,FVII inhib %,Factor VII; [4],−11.7%
same,Final size (nm),[2]; [5],110 nm
same,PDI,[2]; [5],0.24
same,Final size (nm),[2]; [6],76 nm
same,PDI,[2]; [6],0.15
CCCCC/C=C\C/C=C\CCCCCCCCOCOCC(CN1CCCCC1)OCCOCCO[C@H]1CC[C@@]2(C)C(=CC[C@H]3[C@@H]4CC[C@H]([C@H](C)CCCC(C)C)[C@@]4(C)CC[C@@H]32)C1 (stereo partly drawn) [E0115],pKa,[1]; pKa,6.41
same,FVII inhib %,Factor VII; [7],68.8%
same,Final size (nm),[2]; [8],162.5 nm
same,PDI,[2]; [8],0.098
CCCCC/C=C\C/C=C\CCCCCCCCOCC(CN1C[C@@H](C)O[C@@H](C)C1)OCCOCCO[C@H]1CC[C@@]2(C)C(=CC[C@H]3[C@@H]4CC[C@H]([C@H](C)CCCC(C)C)[C@@]4(C)CC[C@@H]32)C1 (stereo partly drawn) [E0006],pKa,[1]; pKa,4.88
same,FVII inhib %,Factor VII; [3],15.7%
same,FVII inhib %,Factor VII; [4],21.2%
same,Final size (nm),[2]; [5],146 nm
same,PDI,[2]; [5],0.04
same,Final size (nm),[2]; [6],95 nm
same,PDI,[2]; [6],0.142
CCCCC/C=C\C/C=C\CCCCCCCCOCC(CN1CCSCC1)OCCOCCO[C@H]1CC[C@@]2(C)C(=CCC3C2CC[C@@]2(C)C3CC[C@@H]2[C@H](C)CCCC(C)C)C1 (stereo partly drawn) [E0031],pKa,[1]; pKa,4.8
same,FVII inhib %,Factor VII; [3],36.7%
same,FVII inhib %,Factor VII; [4],27.1%
same,Final size (nm),[2]; [5],108 nm
same,PDI,[2]; [5],0.23
same,Final size (nm),[2]; [6],65 nm
same,PDI,[2]; [6],0.11
CCCCC/C=C\C/C=C\CCCCCCCCOCC(CN1CCC[C@@H]1C)OCCOCCO[C@H]1CC[C@@]2(C)C(=CCC3C2CC[C@@]2(C)C3CC[C@@H]2[C@H](C)CCCC(C)C)C1 (stereo partly drawn) [E0048],pKa,[1]; pKa,6.56
same,FVII inhib %,Factor VII; [4],88.5%
same,Final size (nm),[2]; [6],225 nm
same,PDI,[2]; [6],0.115
